Assay [1] concerns NIH/3T3 cells transfected with control vector (MOCK). In words: NIH/3T3 mock cell proliferation assay (CTG, counter assay). The format is cell-based. The conditions noted are these: Mus musculus, NIH3T3; 72-hr incubation, CellTiter Glo; counter assay for general toxicity. The method, boiled down: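 Control-vector NIH/3T3 cells, 30,000/well in DMEM with 10% FBS, exposed 72 h at 37 °C to compound (9 points, 3-fold from 30 μM, 0.3% DMSO). CellTiter-Glo luminescence normalized to survival %; IC50, pIC50 and Hill slope from concentration-response fit.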
(In general: In ATP-based viability assays light output follows the ATP content of the culture.)

Assay [2] has as its target T1, NIH/3T3 cells overexpressing FGFR3 V555M-TACC3 fusion protein (Homo sapiens, UniProt P22607, V555M, cells depend on it).
T1 construct: NIH/3T3 FGFR3 V555M-TACC3 CTG (IC50); other: 72-hr incubation, CellTiter Glo; fused on or other part: C-terminal coiled-coil part of TACC3 (part of the key, as a fusion known from patients); Q9Y6A5 (Transforming acidic coiled-coil-containing protein 3)
In words: NIH/3T3 FGFR3 V555M-TACC3 cell proliferation assay (CTG). It counts as cell-based. Particulars: 72-hr incubation, CellTiter Glo; read-out: NIH/3T3 FGFR3 V555M-TACC3 CTG (IC50). The protocol: NIH/3T3 FGFR3 V555M-TACC3 Cell Proliferation Assay
In day 1, 90 μL of cell suspension (NIH/3T3 cells overexpressing FGFR3 V555M-TACC3 fusion protein) (total 30,000 cells per well in growth medium (DMEM containing 1% Glutamax, 10% FBS and 1% Pen/Strep)) was seeded in a 96-well plate and then incubated overnight at 37° C. and 5% CO2. In day 2, 10 μL of growth medium containing 10-fold stock solution of testing compound was added into cell cultures (9 dose points with 4× serial dilution, starting with 10 μM, 0.1% DMSO final). After 72-hr incubation at 37° C. and 5% CO2, in day 5 a volume of 50 μL CellTiter Glo (CTG) reagent was added into cell-containing 96-well plate and the plate was incubated at room temperature for 10 minutes before RLUs (relative light unit) were measured on a microplate reader with luminescence detection module. The RLU value was normalized to survival % and concentration-response curve was plotted using Prism to calculate IC50 (M), pIC50 (−log IC50) and HillSlope value.

T1 sequence (P22607 whole entry V555M, the tested form may be a part): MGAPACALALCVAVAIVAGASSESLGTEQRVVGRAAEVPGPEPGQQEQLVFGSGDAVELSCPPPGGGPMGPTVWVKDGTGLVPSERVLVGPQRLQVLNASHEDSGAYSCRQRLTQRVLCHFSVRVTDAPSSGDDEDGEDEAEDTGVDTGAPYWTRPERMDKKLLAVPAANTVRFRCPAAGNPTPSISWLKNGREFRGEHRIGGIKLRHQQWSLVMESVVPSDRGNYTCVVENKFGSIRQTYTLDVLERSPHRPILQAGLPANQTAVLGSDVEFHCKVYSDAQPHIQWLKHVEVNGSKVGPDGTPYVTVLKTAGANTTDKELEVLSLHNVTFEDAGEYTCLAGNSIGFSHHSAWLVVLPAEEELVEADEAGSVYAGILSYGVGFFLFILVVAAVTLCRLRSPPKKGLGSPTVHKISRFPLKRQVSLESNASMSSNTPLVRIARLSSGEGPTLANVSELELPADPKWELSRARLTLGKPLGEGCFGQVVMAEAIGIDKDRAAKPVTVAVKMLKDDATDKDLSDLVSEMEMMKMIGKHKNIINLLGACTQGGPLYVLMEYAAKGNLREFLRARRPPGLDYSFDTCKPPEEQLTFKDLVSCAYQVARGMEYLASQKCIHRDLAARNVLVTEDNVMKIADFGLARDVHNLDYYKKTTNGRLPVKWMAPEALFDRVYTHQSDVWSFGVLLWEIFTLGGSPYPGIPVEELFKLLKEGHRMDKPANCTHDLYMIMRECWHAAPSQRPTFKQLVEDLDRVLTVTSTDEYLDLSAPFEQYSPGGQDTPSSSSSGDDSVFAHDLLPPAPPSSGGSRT

One may read the IC50 as the midpoint of a concentration-inhibition curve. Low values mean greater potency, high ones weaker potency. In the case of `CCC(Nc1c(-c2nc3ccc(OCCOC)cc3[nH]2)c(=O)[nH]c2cn(C)nc12)c1ncccn1` (single isomer, unassigned) [Compound 48, (S*)-6-(6-(2-methoxyethoxy)-1H-benzo[d]imidazol-2-yl)-2-methyl-7-((1-(pyrimidin-2-yl)-propyl)amino)-2H-pyrazolo[4,3-b]pyridin-5 (4H)-one], in assay [1], 396 nM corresponded to half-maximal inhibition (IC50). Further, in assay [2], the GI50 worked out at 18.5 nM.
